Measured values reported in patent US8609836B2, “4-aryl-2-anilino-pyrimidines” (Janssen Pharmaceutica NV, priority 2008, dated 2013).

Tests used:
[1] = molecular target: PLK4 (h) (Homo sapiens, UniProt O00444); test: PLK-4 human kinase inhibition, scintillation proximity assay (SPA); type: biochemical; conditions: read-out: PLK4 pIC50 (converted)
[2] = molecular target: GSK3β (h) (Homo sapiens, UniProt P49841); test: GSK-3β human kinase inhibition, SPA; type: biochemical; conditions: read-out: GSK3b pIC50 (converted)
GSK3β (h), sequence (P49841 whole entry): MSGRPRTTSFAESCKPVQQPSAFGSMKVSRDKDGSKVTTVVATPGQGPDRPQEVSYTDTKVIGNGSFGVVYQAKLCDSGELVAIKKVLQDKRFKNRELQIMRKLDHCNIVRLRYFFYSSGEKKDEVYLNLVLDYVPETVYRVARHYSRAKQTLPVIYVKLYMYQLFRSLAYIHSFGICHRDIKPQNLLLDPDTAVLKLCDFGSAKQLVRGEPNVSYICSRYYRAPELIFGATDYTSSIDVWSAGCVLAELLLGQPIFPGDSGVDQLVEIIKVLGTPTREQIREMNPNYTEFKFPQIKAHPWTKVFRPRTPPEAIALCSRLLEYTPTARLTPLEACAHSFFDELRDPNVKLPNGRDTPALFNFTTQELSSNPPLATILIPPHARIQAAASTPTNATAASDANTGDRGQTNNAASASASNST
Summary of the method: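 Radiometric: 33P-labelled peptide captured on streptavidin SPA beads after EDTA stop and imaged on Leadseeker. Reaction ran 1 h at RT, 1 μM cold ATP with 2 nM [γ-33P]ATP, 1 μM biotin-peptide substrate, human GSK3β 1 μg/ml, pH 7.4 Tris buffer.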

[3] = molecular target: CDK1/CyclinB (h) (Homo sapiens, UniProt P06493); test: CDK1/CyclinB human kinase inhibition, Invitrogen's FRET assay (Z'lyte); type: biochemical; conditions: read-out: CDK1 pIC50 (converted)
CDK1/CyclinB (h), sequence (P06493 whole entry): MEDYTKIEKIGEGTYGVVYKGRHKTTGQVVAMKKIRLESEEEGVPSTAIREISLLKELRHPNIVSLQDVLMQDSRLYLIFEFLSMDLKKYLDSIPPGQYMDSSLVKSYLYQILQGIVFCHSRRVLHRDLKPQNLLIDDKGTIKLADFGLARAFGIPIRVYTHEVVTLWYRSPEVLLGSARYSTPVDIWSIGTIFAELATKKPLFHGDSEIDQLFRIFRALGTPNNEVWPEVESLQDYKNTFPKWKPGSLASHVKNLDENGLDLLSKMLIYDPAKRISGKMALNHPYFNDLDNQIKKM
CDK1/CyclinB (h), sequence (P14635 whole entry partner): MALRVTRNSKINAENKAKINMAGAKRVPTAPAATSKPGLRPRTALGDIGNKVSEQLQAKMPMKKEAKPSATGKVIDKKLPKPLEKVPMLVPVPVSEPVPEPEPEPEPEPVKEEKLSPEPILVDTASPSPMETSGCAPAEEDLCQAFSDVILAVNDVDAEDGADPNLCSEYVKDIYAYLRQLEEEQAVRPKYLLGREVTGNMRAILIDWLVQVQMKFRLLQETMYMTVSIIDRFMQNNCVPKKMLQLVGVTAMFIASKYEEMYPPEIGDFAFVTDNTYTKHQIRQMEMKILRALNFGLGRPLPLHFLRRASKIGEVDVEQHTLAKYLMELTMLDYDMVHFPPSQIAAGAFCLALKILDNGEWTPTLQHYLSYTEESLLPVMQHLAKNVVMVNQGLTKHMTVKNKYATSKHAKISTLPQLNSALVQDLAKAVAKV
Summary of the method: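 Read-out is the 460 nm/538 nm emission ratio (390 nm excitation) after a 60 min protease development step. Before that, 10 μM ATP and 2 μM Z'lyte Ser/Thr peptide 12 react 60 min at room temperature with 0.2 μg/ml human CDK1/CyclinB in Hepes pH 7.5 containing MgCl2, EGTA and Brij-35.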

[4] = molecular target: CDK4/CyclinD1 (h) (Homo sapiens, UniProt P11802); test: CDK4/CyclinD1 human kinase inhibition, SPA with GST-pRb substrate; type: biochemical; conditions: read-out: CDK4 pIC50 (converted)
CDK4/CyclinD1 (h), sequence (P11802 whole entry): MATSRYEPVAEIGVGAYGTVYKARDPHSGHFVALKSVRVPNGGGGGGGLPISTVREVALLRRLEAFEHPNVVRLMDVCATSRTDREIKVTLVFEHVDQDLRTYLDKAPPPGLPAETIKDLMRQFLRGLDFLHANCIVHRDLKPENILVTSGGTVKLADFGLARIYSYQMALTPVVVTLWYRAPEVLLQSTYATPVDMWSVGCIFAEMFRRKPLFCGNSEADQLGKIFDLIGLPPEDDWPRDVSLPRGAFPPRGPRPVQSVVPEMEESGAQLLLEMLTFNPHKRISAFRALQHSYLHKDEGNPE
CDK4/CyclinD1 (h), sequence (P24385 whole entry partner): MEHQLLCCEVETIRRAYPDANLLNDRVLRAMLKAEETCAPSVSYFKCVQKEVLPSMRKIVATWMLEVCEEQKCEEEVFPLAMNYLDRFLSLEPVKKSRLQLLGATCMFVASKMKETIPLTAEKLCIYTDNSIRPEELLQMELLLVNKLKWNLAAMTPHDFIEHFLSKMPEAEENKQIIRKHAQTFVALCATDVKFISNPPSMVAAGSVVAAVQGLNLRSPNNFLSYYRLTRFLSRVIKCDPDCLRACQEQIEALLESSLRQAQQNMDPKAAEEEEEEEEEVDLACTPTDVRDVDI
Summary of the method: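 Scintillation proximity format: after EDTA/Triton stop containing glutathione SPA beads, 33P incorporation was counted. The reaction ran 60 min at room temperature in Hepes pH 7.5 with NaF, MgCl2, DTT, using 2.5 μg/ml human CDK4/CyclinD1, 40 μg/ml GST-pRb substrate and 2 nM [γ-33P]ATP.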

[5] = molecular target: PLK1 T210D (h) (Homo sapiens, UniProt P53350, T210D); test: PLK1 human kinase inhibition, SPA; type: biochemical; conditions: read-out: PLK1 pIC50 (converted)
PLK1 T210D (h), sequence (P53350 whole entry T210D): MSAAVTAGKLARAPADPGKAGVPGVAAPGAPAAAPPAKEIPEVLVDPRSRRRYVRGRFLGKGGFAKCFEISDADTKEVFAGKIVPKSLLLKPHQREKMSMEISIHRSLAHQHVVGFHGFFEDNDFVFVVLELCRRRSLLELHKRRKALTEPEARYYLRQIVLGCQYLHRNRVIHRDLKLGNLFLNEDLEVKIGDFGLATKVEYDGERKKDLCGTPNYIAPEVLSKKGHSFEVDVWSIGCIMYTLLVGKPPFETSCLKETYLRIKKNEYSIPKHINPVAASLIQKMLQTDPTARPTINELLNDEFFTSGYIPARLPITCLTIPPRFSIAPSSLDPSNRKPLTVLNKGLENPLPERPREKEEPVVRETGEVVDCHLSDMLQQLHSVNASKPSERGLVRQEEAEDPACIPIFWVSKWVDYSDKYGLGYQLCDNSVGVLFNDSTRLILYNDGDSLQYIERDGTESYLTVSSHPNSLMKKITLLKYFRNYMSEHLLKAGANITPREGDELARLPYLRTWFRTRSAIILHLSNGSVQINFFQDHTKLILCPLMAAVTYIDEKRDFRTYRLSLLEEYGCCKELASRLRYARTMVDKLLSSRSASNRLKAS
Summary of the method: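 Kinase incubated 40 min at room temperature with 0.1 μM ATP (2 nM [γ-33P]ATP tracer), 2 μM biotinylated peptide, pH 8.0 Hepes buffer with 2 mM MnCl2 and 1 mM DTT; enzyme at 0.125 ng/ml. Stopped with EDTA; 33P-peptide bound to streptavidin scintillant beads and imaged.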

[6] = tested on: HCT-116; test: Cellular proliferation assay (Alamar blue), HCT-116; type: cell-based; conditions: Homo sapiens, 10% FCS, 72 hours with compound, Alamar blue 4 h
Summary of the method: (§1)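 After a 24 h compound-free attachment period, cells in 10% FCS medium are treated for 72 h at 37° C. Resazurin conversion is then quantified by fluorescence, with dye incubation lasting 4 h for HCT-116, 6 h for U87-MG and 24 h for A2780 or MDA-MB-231.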

[7] = tested on: H1299; test: Cellular proliferation assay (Alamar blue), H1299; type: cell-based; conditions: Homo sapiens, NCI-H1299; 10% FCS; 72 hours with compound; Alamar blue 4 h
Summary of the method: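 This proliferation assay on NCI-H1299 cells used an initial 24-hour compound-free incubation after seeding, followed by 72 hours of compound treatment with 10% FCS serum at 37° C. and 5% (v/v) CO2. Viable cells were quantified by a 4 h Alamar blue incubation and fluorescent plate reading at 544 nm/590 nm, and effects were expressed relative to control cells.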

[8] = tested on: A2780; test: Cellular proliferation assay (Alamar blue), A2780; type: cell-based; conditions: Homo sapiens, 10% FCS, 72 hours with compound, Alamar blue 24 h, read-out: A2780 (cellular proliferation assay, Table 4) (converted)
Summary of the method: as §1

[9] = tested on: MDA-MB-231; test: Cellular proliferation assay (Alamar blue), MDA-MB-231; type: cell-based; conditions: Homo sapiens, 10% FCS, 72 hours with compound, Alamar blue 24 h, read-out: MDA/MB231 (cellular proliferation assay, Table 4) (converted)
Summary of the method: as §1

PLK4 (h), sequence (O00444 whole entry): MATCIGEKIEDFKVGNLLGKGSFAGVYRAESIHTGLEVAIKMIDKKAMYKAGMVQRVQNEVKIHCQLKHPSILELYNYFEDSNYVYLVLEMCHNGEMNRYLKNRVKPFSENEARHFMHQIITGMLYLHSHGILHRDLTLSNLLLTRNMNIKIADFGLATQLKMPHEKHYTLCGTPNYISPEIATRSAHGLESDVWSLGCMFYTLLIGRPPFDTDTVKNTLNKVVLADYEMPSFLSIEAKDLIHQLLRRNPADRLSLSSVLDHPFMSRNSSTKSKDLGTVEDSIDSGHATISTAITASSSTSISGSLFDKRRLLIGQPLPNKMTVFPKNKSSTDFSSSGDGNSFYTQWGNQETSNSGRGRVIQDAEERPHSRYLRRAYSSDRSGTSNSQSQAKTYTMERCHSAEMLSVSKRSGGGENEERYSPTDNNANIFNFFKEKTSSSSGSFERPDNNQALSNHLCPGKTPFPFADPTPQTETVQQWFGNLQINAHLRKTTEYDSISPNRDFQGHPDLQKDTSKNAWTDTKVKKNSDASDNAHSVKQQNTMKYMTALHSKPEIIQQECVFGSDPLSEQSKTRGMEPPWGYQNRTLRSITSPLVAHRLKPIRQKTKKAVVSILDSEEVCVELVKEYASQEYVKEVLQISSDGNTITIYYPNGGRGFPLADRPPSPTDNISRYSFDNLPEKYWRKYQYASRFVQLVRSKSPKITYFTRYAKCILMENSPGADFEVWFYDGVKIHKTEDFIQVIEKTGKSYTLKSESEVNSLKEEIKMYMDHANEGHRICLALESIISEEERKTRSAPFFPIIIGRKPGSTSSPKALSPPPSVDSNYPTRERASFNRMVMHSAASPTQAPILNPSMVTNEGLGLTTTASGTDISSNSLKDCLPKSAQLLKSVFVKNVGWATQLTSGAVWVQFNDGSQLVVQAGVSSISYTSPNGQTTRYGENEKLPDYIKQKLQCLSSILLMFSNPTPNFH

Compound	IC50 [1] [µM]	IC50 [2] [µM]	IC50 [3] [µM]	IC50 [4] [µM]	IC50 [5] [µM]	IC50 [6] [µM]	IC50 [7] [µM]	IC50 [8] [µM]	IC50 [9] [µM]
CN(C)CCNC(=O)c1cc2cc(c1)Nc1nccc(n1)-c1cccc(c1)CNC(=O)[C@@H]1CCCN1C2 [Compound 39]	0.282	0.363	1.45	1.12	> 10	1.23	> 10	2.09	6.76
O=C1NCc2cccc(c2)-c2ccnc(n2)Nc2ccc(cc2)CN2CCC[C@@H]12 [Compound 54]	> 10	> 10	> 10	7.41	> 10	> 10	> 10	> 10	> 10
COc1cc2cc(c1)Nc1nccc(n1)-c1ccc(OC)c(c1)CN(C)CCCNC(=O)[C@@H]1CCCN1C2 [Compound 171]	5.01	> 10	> 10	> 10	> 10	6.61	> 10	> 10	> 10
CN1CCN(C)c2ccc(cn2)-c2ccnc(n2)Nc2cc(c3c(c2)OCO3)CN2CCC[C@H]2C1=O [Compound 168]	3.55	1.45	8.13	2.14	> 10	> 10	> 10	> 10	> 10
O=C1CN2CCN(CC2)Cc2cccc(c2)Nc2nccc(n2)-c2cccc(c2)CN1 [Compound 196]	> 10	1.07	> 10	6.17	> 10	> 10	> 10	> 10	> 10
COc1cc2cc(c1)Nc1nccc(n1)-c1ccc(cc1)CN(C)CCNC(=O)C1CCN(CC1)C2 [Compound 62]	0.871	1.91	> 10	> 10	> 10	2.75	> 10	5.89	9.12
O=C1NCc2cccc(c2)-c2ccnc(n2)Nc2ccc(N3CCOCC3)c(c2)CN[C@H]1Cc1ccccc1 [Compound 18]	0.646	0.389	> 10	> 10	> 10	6.76	> 10	9.33	> 10
O=C1NCc2cc(ccc2N2CCOCC2)Nc2nccc(n2)-c2cccc(c2)CN2CCC[C@@H]12 [Compound 15]	0.575	0.372	> 10	4.47	> 10	8.32	> 10	7.08	> 10
COc1cc2cc(c1)Nc1nccc(n1)-c1ccc(cc1)CN(C)CCNC(=O)[C@@H]1CCCN1C2 [Compound 158]	1.15	> 10	8.71	> 10	> 10	> 10	> 10	> 10	> 10
O=C1NCc2cccc(c2)-c2ccnc(n2)Nc2ccc(cc2)CN2C[C@H](O)C[C@@H]12 [Compound 55]	> 10	> 10	> 10	> 10	> 10	> 10	> 10	> 10	> 10
O=C1CN2CCN(CC2)Cc2cc(ccc2N2CCOCC2)Nc2nccc(n2)-c2cccc(c2)OCCN1 [Compound 102]	0.794	0.24	2.57	8.13	> 10	1.29	1.15	6.46	6.61
O=C(NC1CCOCC1)c1cc2cc(c1)Nc1nccc(n1)-c1cccc(c1)CNC(=O)[C@@H]1CCCN1C2 [Compound 37]	0.245	0.676	5.37	> 10	> 10	> 10	> 10	> 10	> 10
CN1CCN(C(=O)c2ccc3cc2CN2CCC[C@H]2C(=O)NCc2cccc(c2)-c2ccnc(n2)N3)CC1 [Compound 25]	0.0933	0.0813	> 10	> 10	> 10	3.72	3.31	4.47	> 10
COc1ccc2cc1CN(C)CCNC(=O)[C@H](CO)NCc1cc(cc(N3CCOCC3)c1)Nc1nccc-2n1 [Compound 105]	0.447	> 10	> 10	> 10	> 10	> 10	> 10	> 10	> 10
C[C@@H]1NCc2cccc(c2)Nc2nccc(n2)-c2cccc(c2)CNC1=O [Compound 184]	0.776	0.102	0.398	1.17	> 10	5.37	9.77	5.01	> 10
C[C@@H]1NCc2cccc(c2)-c2ccnc(n2)Nc2ccc(N3CCOCC3)c(c2)CNC1=O [Compound 101]	1.82	0.182	> 10	2.57	> 10	2.69	6.61	4.68	8.13
O=C1NCc2cccc(c2)-c2ccnc(n2)Nc2ccc(N3CCOCC3)c(c2)CN2CCC1CC2 [Compound 95]	6.61	3.72	7.24	1.29	> 10	> 10	> 10	> 10	> 10
